Test results from patent publication US4863925A, “Cyclohexanedione derivative for hepatic disorders and a process for producing the same” (Nihon Nohyaku Co., Ltd., priority 1986, dated 1989).

Test system: hepatic disorder caused by carbon tetrachloride
Assay: Effect of suppressing hepatic disorder caused by carbon tetrachloride (Test Example 1)
Assay type: in vivo, mice (dd-strain, male)
Parameters: key to Liver injury index: 0 = healthy, 2 = slight, 4 = evident injury, 6 = serious injury
Conditions: 30 mg/kg p.o., 6 h before CCl4 0.05 ml/kg p.o., 24 h after CCl4, mean of five mice; for Liver injury index: 0 healthy, 2 slightly affected, 4 evidently observed injury, 6 serious injury; for P-GPT (plasma glutamic pyruvic transaminase activity): Reitman-Frankel, 2,000 or higher calculated as 2,000
Protocol: Effect of suppressing hepatic disorder caused by carbon tetrachloride. […] The animals were sacrificed 24 hours after the administration of carbon tetrachloride, and the extent of liver injury was examined. On the other hand, blood was collected from the animal at the time of the sacrifice, and centrifuged to obtain plasma. The plasma glutamic pyruvic transminase (GPT) activity was determined according to the method of Reitman-Frankel. The activity was expressed in terms of Karmen Units (K.U.). The conditions of the liver were expressed in terms of liver injury index as follows. |Liver injury index | Condition of liver |0 Healthy liver |2 Slightly affected |4 Evidently observed injury |6 Serious injury Mice were used in groups of five of test were represented by the mean value. When the GPT activity was 2,000 units or higher, or further determination was made, the activity was calculated as 2,000 units for reasons of convenience.

Row | Structure (SMILES) | Liver injury index | P-GPT (plasma glutamic pyruvic transaminase activity) [K.U.]
1 | CCOC(=O)C1C(=O)C(=C2SC3C(S2)N(C)CCN3C)C(=O)CC1c1ccc(C)cc1 (centres unmarked) [compound 102] | 1.5 | 319
2 | CCCN1CCN(CCC)C2SC(=C3C(=O)CC(c4ccc(OC)cc4)CC3=O)SC21 (centres unmarked) [compound 57] | 0.2 | 142
3 | Cc1ccc(C2CC(=O)C(=C3SC4NCC(C)NC4S3)C(=O)C2)cc1 (centres unmarked) [compound 78] | 0.2 | 18
4 | CN1CCN(C)C2SC(=C3C(=O)CC(c4ccccc4)CC3=O)SC21 (centres unmarked) [compound 26, 2-[2,5-dimethyl-2,5-diaza-7,9-dithiabicyclo(4,3, 0)-nonane-8-ylidene]-5-phenyl-1,3-cyclohexanedione] | 0 | 12
5 | CN1CCN(C)C2(C)SC(=C3C(=O)CCCC3=O)SC12 (centres unmarked) [compound 11] | 0.5 | 16
6 | CCC(C)C1CC(=O)C(=C2SC3C(S2)N(C)CCN3C)C(=O)C1 (centres unmarked) [compound 21] | 0.1 | 23
7 | COc1ccc(C2CC(=O)C(=C3SC4N(C)CCN(C)C4(C)S3)C(=O)C2)cc1 (centres unmarked) [compound 59] | 0.1 | 16
8 | CCN1CCN(CC)C2SC(=C3C(=O)CC(c4ccc(OC)cc4)CC3=O)SC21 (centres unmarked) [compound 56] | 2.5 | 50
9 | COc1cccc(C2CC(=O)C(=C3SC4C(S3)N(C)CCN4C)C(=O)C2)c1 (centres unmarked) [compound 52] | 0.1 | 14
10 | CCCN1CCN(CCC)C2SC(=C3C(=O)CC(c4ccccc4)CC3=O)SC21 (centres unmarked) [compound 28] | 0.2 | 39
11 | CN1CCN(C)C2SC(=C3C(=O)CC(c4ccco4)CC3=O)SC21 (centres unmarked) [Compound No. 79] | 0 | 30
12 | CN1CCN(C)C2SC(=C3C(=O)CC(c4cccs4)CC3=O)SC21 (centres unmarked) [compound 82, 2-[2,5-dimethyl-2,5-diaza-7,9-dithiabicyclo-(4.3.0)-nonane-8-ylidene]-5-(2-thienyl)-1,3-cyclo hexanedione] | 0.3 | 16
13 | COc1ccccc1C1CC(=O)C(=C2SC3C(S2)N(C)CCN3C)C(=O)C1 (centres unmarked) [compound 51] | 0 | 81
14 | COc1ccc(C2CC(=O)C(=C3SC4C(S3)N(C)CCN4C)C(=O)C2)cc1 (centres unmarked) [compound 122] | 1.5 | 231
15 | CCC1CCC(=O)C(=C2SC3C(S2)N(C)CCN3C)C1=O (centres unmarked) [compound 25] | 0.8 | 15
16 | CN1CCN(C)C2SC(=C3C(=O)CCCC3=O)SC21 (centres unmarked) [compound 1] | 0.2 | 14
17 | CCN1CCN(CC)C2SC(=C3C(=O)CCCC3=O)SC21 (centres unmarked) [Compound No. 2] | 0.4 | 15
18 | COc1ccc(C2CC(=O)C(=C3SC4NCCNC4S3)C(=O)C2)cc1 (centres unmarked) [Compound No. 53] | 0.1 | 13
19 | CN1CCN(C)C2(C)SC(=C3C(=O)CC(C)(C)CC3=O)SC12 (centres unmarked) [compound 12, 2-[1,2,5-trimethyl-2,5-diaza-7,9-dithiabicyclo(4.3.0)-nonane-8-ylidene]-5,5-dimethyl-1,3-cyclohexanedione] | 0.4 | 33
20 | CCOc1ccc(C2CC(=O)C(=C3SC4C(S3)N(C)CCN4C)C(=O)C2)cc1 (centres unmarked) [compound 60] | 0.1 | 26
21 | Cc1cccc(C2CC(=O)C(=C3SC4C(S3)N(C)CCN4C)C(=O)C2)c1 (centres unmarked) [compound 42] | 0 | 14
22 | CN1CCNC2SC(=C3C(=O)CC(c4ccccc4Cl)CC3=O)SC21 (centres unmarked) [compound 121] | 0 | 20
23 | CN1CCN(C)C2SC(=C3C(=O)CC(c4ccccc4Cl)CC3=O)SC21 (centres unmarked) [compound 32] | 0.3 | 22
24 | CCc1ccc(C2CC(=O)C(=C3SC4C(S3)N(C)CCN4C)C(=O)C2)cc1 (centres unmarked) [compound 48] | 0.3 | 18
25 | CCCN1CCN(CCC)C2SC(=C3C(=O)CC(c4ccccc4)C(C(=O)OCC)C3=O)SC21 (centres unmarked) [compound 114] | 2.2 | 26

Row | Structure (SMILES) | Liver injury index | P-GPT (plasma glutamic pyruvic transaminase activity) [K.U.]
26 | Cc1ccc(C2CC(=O)C(=C3SC4N(C)CCN(C)C4(C)S3)C(=O)C2)cc1 (centres unmarked) [compound 47] | 0 | 24
27 | C=CCN1CCN(CC=C)C2(C)SC(=C3C(=O)CC(C)(C)CC3=O)SC12 (centres unmarked) [compound 106] | 1.2 | 242
28 | CC1CNC2SC(=C3C(=O)CC(C)(C)CC3=O)SC2N1 (centres unmarked) [compound 14, 2-[3-methyl-2,5-diaza-7,9-dithiabicyclo-(4.3.0)-nonane-8-ylidene]-5,5-dimethyl-1,3-cyclohexanedione] | 0.4 | 18
29 | CCN1CCN(CC)C2SC(=C3C(=O)CC(C)(C)CC3=O)SC21 (centres unmarked) [compound 6] | 0 | 19
30 | CCOC(=O)C1C(=O)C(=C2SC3C(S2)N(C)CCN3C)C(=O)CC1c1ccc(OCC)cc1 (centres unmarked) [compound 115] | 0 | 39
31 | CCCN1CCN(CCC)C2SC(=C3C(=O)CCCC3=O)SC21 (centres unmarked) [compound 10] | 0 | 41
32 | Cc1ccccc1C1CC(=O)C(=C2SC3C(S2)N(C)CCN3C)C(=O)C1 (centres unmarked) [compound 41] | 0.4 | 213
33 | CN1CCN(C)C2SC(=C3C(=O)CC(C4CCCCC4)CC3=O)SC21 (centres unmarked) [compound 80] | 1.0 | 405
34 | CCOc1ccc(C2CC(=O)C(=C3SC4N(C)CCN(C)C4(C)S3)C(=O)C2)cc1 (centres unmarked) [compound 63] | 0 | 15
35 | COc1ccc(C2CC(=O)C(=C3SC4NCCNC4(C)S3)C(=O)C2)cc1 (centres unmarked) [compound 92] | 0.4 | 15
36 | CCCN1CCN(CCC)C2SC(=C3C(=O)CC(C)(C)CC3=O)SC21 (centres unmarked) [Compound No. 7] | 0 | 16
37 | CC1CC(=O)C(=C2SC3C(S2)N(C)CCN3C)C(=O)C1 (centres unmarked) [compound 18] | 1.2 | 22
38 | CN1CCNC2SC(=C3C(=O)CC(C)(C)CC3=O)SC21.Cl.Cl (centres unmarked) [compound 118, 2-[2-methyl-2,5-diaza-7,9-dithiabicyclo-(4,3,0)-nonane-8-ylidene]-5,5-dimethyl-1,3-cyclohexanedione dihydrochloride salt] | 0 | 32
39 | CN1CCN(C)C2SC(=C3C(=O)CC(c4ccc(F)cc4)CC3=O)SC21 (centres unmarked) [compound 36] | 1.5 | 268
40 | CN1CCN(C)C2SC(=C3C(=O)CC(C)(C)CC3=O)SC21 (centres unmarked) [Compound No. 4] | 0 | 11
41 | COc1ccc(C2CC(=O)C(=C3SC4C(S3)N(C)CCN4C)C(=O)C2)cc1OC (centres unmarked) [compound 65] | 1.6 | 347
42 | CN1CCNC2SC(=C3C(=O)CC(c4ccco4)CC3=O)SC21 (centres unmarked) [compound 108] | 1.0 | 24
43 | CN1CCN(C)C2(C)SC(=C3C(=O)CC(c4cccs4)CC3=O)SC12 (centres unmarked) [compound 105] | 0 | 15
44 | Cc1ccc(C2CC(=O)C(=C3SC4C(S3)N(C)CCN4C)C(=O)C2)cc1 (centres unmarked) [Compound No. 43] | 0.2 | 24
45 | CN1CCNC2SC(=C3C(=O)CC(c4cccs4)CC3=O)SC21 (centres unmarked) [compound 109] | 0 | 17
46 | CC1(C)CC(=O)C(=C2SC3NCCNC3(C)S2)C(=O)C1 (centres unmarked) [compound 111] | 1.0 | 14
47 | CCOc1ccc(C2CC(=O)C(=C3SC4C(S3)N(CC)CCN4CC)C(=O)C2)cc1 (centres unmarked) [compound 61] | 1.5 | 494
48 | CCOC(=O)C1C(=O)C(=C2SC3C(S2)N(C)CCN3C)C(=O)CC1c1ccccc1Cl (centres unmarked) [compound 104] | 1.7 | 345
49 | CCOC(=O)C1C(=O)C(=C2SC3C(S2)N(C)CCN3C)C(=O)CC1c1ccc(OC)cc1 (centres unmarked) [compound 103] | 1.0 | 18
